Measurements: patent publication US20250009730A1 (priority 2021, published 2025)
Where a name gives a salt, the structure may show the parent alone. Read-outs that look alike come from different tables or passages of the source. Values belong to the molecule of their own block, whether it stands above or below them.

Experiments:
[1] = target: T1, NR1/NR2B ionotropic receptors encoded by the human GRIN1/GRIN2B genes, expressed in HEK293 cells (Homo sapiens, UniProt Q05586+Q13224); experiment: Syncropatch automated patch clamp on NR1/NR2B receptors in HEK293 cells, agonist mode; assay type: cell-based; settings: for EC50 / NR1/NR2B PCA agonist EMAX: plus 50 μM glycine; for NR1/NR2B PCA agonist EMAX: relative to current produced by 100 μM glutamate (EMAX set as 100%)
Method: (§1) The following patch clamp study investigates these effects on NR1/NR2B ionotropic receptors encoded by the human GRIN1/GRIN2B genes, expressed in HEK293 cells. Compounds were evaluated for functional effects on these ion channel receptors.
(§2) The assay was carried out using an HTS electrophysiology-based approach with the Syncropatch 384pe automated patch clamp system (Nanion), while using HEK293 cells that have been transfected with human GRIN1/GRIN2B genes to express NR1/NR2B ionotropic receptors
(§3) HEK293 cells were transfected with the appropriate ion channel or receptor cDNA(s) encoding NR1 and NR2B. Stable transfectants were selected using the G418 and Zeocin-resistance genes incorporated into the expression plasmid. Selection pressure was maintained with G418 and Zeocin in the culture medium. Cells were cultured in Dulbecco's Modified Eagle Medium/Nutrient Mixture F-12 (D-MEM/F-12) supplemented with 10% fetal bovine serum, 100 U/ml penicillin G sodium, 100 ug/mL streptomycin sulfate, 100 ug/mL Zeocin, 5 ug/mL blasticidin and 500 ug/mL G418.
(§4) Before testing, cells in culture dishes were washed twice with DPBS solution. Immediately before testing, the cells were washed in HB-PS containing 10 mM CaCl2 to improve sealing.
(§5) Compounds were evaluated in 8-point concentration-response format (4 replicate wells/concentration). The compound formulations were loaded in e.g. a 384-well compound plate and placed in the Syncropatch plate well.
(§6) The agonist positive control (L-glutamate) was applied at eight (8) concentrations (0.03-100 μM; n=4, where n=the number of replicates) together with 50 μM glycine.
(§7) 2× concentration of test compounds and antagonist control was pre-applied 2 minutes before application of L-glutamate/glycine mixed with 1× concentration of test compound. Glutamate and glycine was applied to naive cells (n=4, where n=the number of replicate wells/concentration) via a multi-channel pipettor.
(§8) • a) Intracellular solution (mM): 50 mM CsCl, 90 mM CsF, 2 mM MgCl2, 5 mM EGTA, 10 mM HEPES. Adjust to pH 7.2 with CsOH. This solution was prepared in batches and stored refrigerated.
(§9) • a) Extracellular buffer was loaded into the multi holes plate wells (40 μL per well).
(§10) Activation was calculated in two ways based on the following measurements: • 1. peak current amplitudes, and • 2. current amplitude 4-5 seconds after agonist addition.
(§11) Data acquisition was performed via the […] and data was analyzed using Microsoft Excel™ (Microsoft™ Corp., Redmond, WA). Concentration-response data was filled to a Hill equation of the following form: […]
(§12) where Base is the response in the absence of test article (vehicle treatment), Max is the maximum response at high concentrations, xhalf is the EC50, or IC50, the concentration of test compound producing either half-maximal activation or inhibition, and rate is the Hill coefficient. Nonlinear least squares fits were made assuming a simple binding model. If appropriate, fits were weighted by the standard deviation. No assumptions about the fit parameters were made; the fit parameters were determined by algorithm. Raw reduced data was analyzed using Microsoft Excel Office 365 ProPlus (Microsoft™ Corp., Redmond, WA) and XLfit (Excel addon, Copyright© IDBS 2016).
as §1
HEK293 cells were transfected with the appropriate ion channel or receptor cDNA(s) encoding NR1 and NR2B. Stable transfectants were selected using the G418 and Zeocin-resistance genes incorporated into the expression plasmid. Selection pressure was maintained with G418 and Zeocin in the culture medium.

[2] = target: T1, NR1/NR2B ionotropic receptors encoded by the human GRIN1/GRIN2B genes, expressed in HEK293 cells; experiment: Syncropatch automated patch clamp on NR1/NR2B receptors in HEK293 cells, antagonist mode (co-applied with 2 μM glutamate and 50 μM glycine); assay type: cell-based; settings: for inhibits glutamate and glycine activation of NR1/NR2B receptors in vitro: PCA and SSC measurements, conclusion in words; for NR1/NR2B PCA antagonist HillSlope: co-applied with 2 μM glutamate and 50 μM glycine
Method: as §1, §2, §3, §4, §5, §6, §7, §8, §9, §10, §11, §12
Antagonist activity of test articles was examined after stimulation of receptors with 2 μM glutamate and 50 μM glycine in the presence of increasing concentrations of test articles. Two measurements were performed, first was a peak current amplitude and second was a steady state current between 4th and 6th seconds following agonist application.
as §1
HEK293 cells were transfected with the appropriate ion channel or receptor cDNA(s) encoding NR1 and NR2B.

[3] = target: NR1C and NR2B receptors over NR1C+NR2A receptors (Homo sapiens, UniProt Q05586+Q13224); settings: cited from earlier work
[4] = tested on: cortical damage in a model of permanent focal ischemia; settings: cited from earlier work
[5] = steady state current amplitude (SSC) table

T1 sequence (Q13224 27-1484, other chains not shown): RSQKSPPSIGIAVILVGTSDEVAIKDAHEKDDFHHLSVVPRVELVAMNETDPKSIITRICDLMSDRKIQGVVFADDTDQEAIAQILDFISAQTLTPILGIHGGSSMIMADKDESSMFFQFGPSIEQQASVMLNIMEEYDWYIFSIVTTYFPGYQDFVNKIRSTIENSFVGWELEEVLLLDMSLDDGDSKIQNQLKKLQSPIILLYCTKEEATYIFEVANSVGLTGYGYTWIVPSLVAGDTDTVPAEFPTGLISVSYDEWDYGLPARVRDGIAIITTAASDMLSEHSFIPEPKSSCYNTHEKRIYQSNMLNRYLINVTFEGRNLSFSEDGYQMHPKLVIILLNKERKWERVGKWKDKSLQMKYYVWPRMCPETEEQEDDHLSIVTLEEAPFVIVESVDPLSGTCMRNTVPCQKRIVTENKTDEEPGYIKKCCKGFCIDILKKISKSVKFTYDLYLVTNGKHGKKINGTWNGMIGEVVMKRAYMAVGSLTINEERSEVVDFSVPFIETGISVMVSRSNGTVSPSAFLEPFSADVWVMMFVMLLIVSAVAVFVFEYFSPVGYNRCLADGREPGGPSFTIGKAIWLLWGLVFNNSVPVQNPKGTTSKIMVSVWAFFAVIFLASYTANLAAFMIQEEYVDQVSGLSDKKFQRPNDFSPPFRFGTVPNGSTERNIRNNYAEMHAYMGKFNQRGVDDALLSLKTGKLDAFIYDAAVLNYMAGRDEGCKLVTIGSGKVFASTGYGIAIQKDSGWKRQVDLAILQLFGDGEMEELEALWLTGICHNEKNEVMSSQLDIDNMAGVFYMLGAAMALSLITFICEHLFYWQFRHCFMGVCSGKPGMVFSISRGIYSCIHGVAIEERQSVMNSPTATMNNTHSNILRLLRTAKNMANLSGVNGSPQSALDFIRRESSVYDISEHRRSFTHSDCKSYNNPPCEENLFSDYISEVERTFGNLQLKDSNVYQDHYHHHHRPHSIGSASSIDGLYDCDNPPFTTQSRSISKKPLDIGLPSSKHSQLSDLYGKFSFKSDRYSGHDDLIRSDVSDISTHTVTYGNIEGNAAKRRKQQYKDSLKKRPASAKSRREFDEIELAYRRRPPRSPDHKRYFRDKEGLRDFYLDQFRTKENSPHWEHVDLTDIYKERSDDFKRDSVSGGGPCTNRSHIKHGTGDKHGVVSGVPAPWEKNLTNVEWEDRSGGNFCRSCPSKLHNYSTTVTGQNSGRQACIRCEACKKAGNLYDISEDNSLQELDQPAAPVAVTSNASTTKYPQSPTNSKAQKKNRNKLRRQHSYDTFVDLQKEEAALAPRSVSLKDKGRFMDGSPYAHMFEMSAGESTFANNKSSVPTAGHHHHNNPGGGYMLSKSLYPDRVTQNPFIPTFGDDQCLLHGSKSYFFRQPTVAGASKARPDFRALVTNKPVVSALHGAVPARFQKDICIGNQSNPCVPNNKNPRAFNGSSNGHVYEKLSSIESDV
Chain of NR1C and NR2B receptors over NR1C+NR2A receptors (Q13224 27-1484, other chains not shown): as above

SMILES: N[C@@H](CCC(=O)O)C(=O)[O-].O.[Na+] [Glutamate, L-Glutamic acid monosodium salt monohydrate]
NR1/NR2B PCA agonist HillSlope ([1]; peak current amplitude (PCA)): −0.86
EC50 ([1]; peak current amplitude (PCA)): 3030 nM
NR1/NR2B PCA agonist EMAX ([1]; peak current amplitude (PCA)): 100.00%
NR1/NR2B PCA agonist HillSlope [1, 5]: −0.95
EC50 ([1]; steady state current amplitude (SSC) table, read-out: NR1/NR2B PCA agonist EC50): 820 nM
NR1/NR2B PCA agonist EMAX [1, 5]: 100.00%

SMILES: CC(C(O)c1ccc(O)cc1)N1CCC(Cc2ccccc2)CC1.O=C(O)c1ccccc1 (centres unmarked) [Ifenprodil benzoate]
inhibits glutamate and glycine activation of NR1/NR2B receptors in vitro [2]: comparable to ifenprodil tartrate
NR1/NR2B PCA antagonist HillSlope ([2]; peak current amplitude (PCA)): 1.39
NR1/NR2B PCA antagonist HillSlope [2, 5]: 1.25

SMILES: CC(C(O)c1ccc(O)cc1)N1CCC(Cc2ccccc2)CC1 (centres unmarked) [Ifenprodil fumarate]
NR1/NR2B PCA antagonist HillSlope ([2]; peak current amplitude (PCA), listed as fumarate): 0.79
NR1/NR2B PCA antagonist HillSlope ([2]; steady state current amplitude (SSC) table, listed as fumarate): 0.61

SMILES: CC(C(O)c1ccc(O)cc1)N1CCC(Cc2ccccc2)CC1 (centres unmarked) [Ifenprodil nicotinate]
NR1/NR2B PCA antagonist HillSlope ([2]; peak current amplitude (PCA), listed as nicotinate): 0.71
NR1/NR2B PCA antagonist HillSlope ([2]; steady state current amplitude (SSC) table, listed as nicotinate): 0.71

inhibits glutamate and glycine activation of NR1/NR2B receptors in vitro [2]: comparable to ifenprodil tartrate
NR1/NR2B PCA antagonist HillSlope ([2]; peak current amplitude (PCA)): 0.79
NR1/NR2B PCA antagonist HillSlope [2, 5]: 0.86
SMILES: C[C@@H]([C@H](O)c1ccc(O)cc1)N1CCC(Cc2ccccc2)CC1 [Ifenprodil oleate]

SMILES: CC(C(O)c1ccc(O)cc1)N1CCC(Cc2ccccc2)CC1 (centres unmarked) [Ifenprodil pamoate]
inhibits glutamate and glycine activation of NR1/NR2B receptors in vitro [2]: comparable to ifenprodil tartrate
NR1/NR2B PCA antagonist HillSlope ([2]; peak current amplitude (PCA), listed as pamoate): 1.59
NR1/NR2B PCA antagonist HillSlope ([2]; steady state current amplitude (SSC) table, listed as pamoate): 0.77

NR1/NR2B PCA antagonist HillSlope ([2]; peak current amplitude (PCA)): 1.12
NR1/NR2B PCA antagonist HillSlope [2, 5]: 1.08
SMILES: CC12CC3CC(C)(C1)CC(N)(C3)C2 [Memantine, memantine chloride, reference compound]

SMILES: Cc1ccc(CC2(O)CCN(CCOc3ccc(O)cc3)CC2)cc1 [Ro 63-1908]
selectivity for the NR1C and NR2B receptors over NR1C+NR2A receptors [3]: 20,000 fold
neuroprotective effect against cortical damage [4]: dose-related neuroprotective effect
